One may read the IC50 as the concentration needed to halve the response being measured.

Data on 35 compounds can be found in patent US20250332173A1, “COMPOUNDS AND METHODS FOR MODULATING NUCLEIC ACID SPLICING” (REMIX THERAPEUTICS INC., priority 2021, published 2025).

What all share (format): cell-based, human
In one assay the test system is HTT. The assay is described as follows: HiBiT protein abundance assay, HTT HiBiT K562 cell line. Conditions: HiBiT K562 cell line, 24 hours, top dose 10 μM; read-out: Effect on protein abundance, HTT (IC50 category). Summed up: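 Tagged-protein abundance measured by split-NanoBiT luminescence after lysis, following 24 h compound exposure (37° C; 10 μM top, 3-fold, 10 points; DMSO ≤0.25%) of HiBiT knock-in K562 cells. Percent response vs DMSO and unmodified-cell controls; 4-parameter logistic interpolation at 50% gave IC50.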
(In general: With HiBiT, luminescence reflects the tagged protein that the partner subunit can reach.)

In a further assay the test system is Target C. The assay is described as follows: HiBiT protein abundance assay, Target C (Promega Nano-Glo HiBiT Lytic Detection System, knock-in K562 cell line). Particulars: Homo sapiens, K562, 24 h, HiBiT K562 cell line, 24 hours, top dose 10 μM; read-out: Effect on protein abundance, Target C (IC50 category). In short, it runs like this: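 Protein abundance was read by Nano-Glo HiBiT lytic luminescence after 24 h compound exposure (10-point, threefold series from 10 μM final) of HiBiT knock-in K562 cells. Parental K562 served as baseline; the 50%-abundance concentration was interpolated from a four-parameter logistic fit.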

In another assay the test system is SMN2 mRNA. The assay is described as follows: RT-qPCR splicing assay, SMN2 canonical junction (CJ) mRNA. Conditions: Homo sapiens; Table 5 panel; canonical junction qPCR; compound concentration having 50% response in CJ decrease; read-out: SMN2 IC50 (decrease in CJ mRNA levels). In short, it runs like this: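 Exposure: 24 h, 37 °C, 11-point 3-fold dilutions from 10 uM final, DMSO at or below 0.25%, in A673 or K562 cells. Detection: cell-lysate RT-qPCR of canonical junction mRNA relative to GAPDH, GUSB or PPIA.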

`CN1CCC(n2cnc3cc(-c4cn[nH]c4)ccc3c2=O)CC1` [Compound 299]: the half-maximal inhibitory concentration (IC50) in the assay with HTT, in the assay with Target C and in the assay on SMN2 mRNA was > 10 µM each time.

As to `Cc1nc2c(F)cc(-c3ccc4c(=O)n(C5CCN(C)CC5)cnc4c3)cc2o1` [Compound 300], the IC50 was 0.1 to 1 µM in the assay with HTT, 1 to 10 µM in the assay on Target C and < 0.1 µM with SMN2 mRNA.

As for `Cc1nc2c(F)cc(-c3ccc4c(=O)n(C5CCN(C)CC5)cnc4c3)cc2s1` [Compound 301], the IC50 in the assay on HTT, in the assay with Target C and in the assay on SMN2 mRNA was 1 to 10 µM throughout.

Consider `Cc1cn2cc(-c3ccc4c(=O)n(C5CCN(C)CC5)cnc4c3)nc2c(C)n1` [Compound 302], for which the IC50 in the assay with HTT was 1 to 10 µM; with Target C it was 1 to 10 µM; in the assay with SMN2 mRNA it was 0.1 to 1 µM.

Regarding `Cc1cn2nc(-c3ccc4c(=O)n(C5CCN(C)CC5)cnc4c3)cc2c(C)n1` [Compound 303], the figures for the IC50 in the assay with HTT, in the assay on Target C and in the assay on SMN2 mRNA were 1 to 10 µM, 1 to 10 µM and 0.1 to 1 µM, respectively.

As for `CC[C@@H]1C[C@H](n2ncc3cc(-c4cc(C)c5nc(C)cn5n4)ccc3c2=O)CCN1` [Compound 304], the IC50 in the assay on HTT was 0.1 to 1 µM; in the assay on Target C it was 0.1 to 1 µM; with SMN2 mRNA, < 0.1 µM.

As for `Cc1cn2cc(-c3ccc4c(=O)n(C5CCNCC5)cnc4c3)cc(C(F)(F)F)c2n1` [Compound 306], the IC50 with HTT is 0.1 to 1 µM; in the assay on Target C, 1 to 10 µM; in the assay with SMN2 mRNA, < 0.1 µM.

For `Cc1cn2cc(-c3ccc4c(=O)n(C5CCN(C)CC5)cnc4c3)ncc2n1` [Compound 308], the IC50 fell in the range of 1 to 10 µM in the assay on HTT, 1 to 10 µM in the assay with Target C and 0.1 to 1 µM with SMN2 mRNA.

For `Cc1cn2nc(-c3ccc4c(=O)n(C5CCN(C)CC5)ccc4c3)cc(C)c2n1` [Compound 310], the results for the half-maximal inhibitory concentration (IC50) with HTT, in the assay on Target C and in the assay with SMN2 mRNA were 0.1 to 1 µM, 0.1 to 1 µM and < 0.1 µM, respectively.

Consider `Cc1cc(-c2cnc3c(=O)n(C4CCNCC4)cnc3c2)cc2cn(C)nc12` [Compound 311], for which the IC50 in the assay on HTT lay within 1 to 10 µM; in the assay on Target C, 1 to 10 µM; with SMN2 mRNA, 0.1 to 1 µM.

Take `Cc1cn2nc(-c3cc(F)c4c(=O)n(C5CCNC6(CC6)C5)ncc4c3)cc(C)c2n1` (stereo not drawn) [Compound 312]: the IC50 in the assay on HTT, in the assay with Target C and in the assay with SMN2 mRNA was < 0.1 µM throughout.

Regarding `Cn1cc2cc(-c3cc(F)c4c(=O)n(C5CCNCC5)cnc4c3)cc(F)c2n1` [Compound 314], the IC50 is 1 to 10 µM in the assay on HTT, > 10 µM in the assay on Target C and 0.1 to 1 µM in the assay with SMN2 mRNA.

With `Cn1cc2cc(-c3cc(F)c4c(=O)n(C5CCNCC5)cnc4c3)c(F)cc2n1` [Compound 315], the IC50 was 1 to 10 µM with HTT, 1 to 10 µM in the assay on Target C and < 0.1 µM with SMN2 mRNA.

Take `Cn1cc2cc(-c3cc(F)c4c(=O)n(C5CCNCC5)cnc4c3)cc(C#N)c2n1` [Compound 316]: the IC50 in the assay on HTT is 0.1 to 1 µM; with Target C, 0.1 to 1 µM; in the assay on SMN2 mRNA, < 0.1 µM.

Turning to `Cc1cn2cc(-c3cc(F)c4c(=O)n(C5CCNCC5)cnc4c3)cc(C)c2n1` [Compound 317], the IC50 in the assay with HTT was 0.1 to 1 µM; in the assay with Target C, 0.1 to 1 µM; with SMN2 mRNA, < 0.1 µM.

Consider `Cc1cn2nc(-c3cc(F)c4c(=O)n(C5CCNCC5)cnc4c3)cc2c(C)n1` [Compound 318], for which the IC50 was < 0.1 µM in the assay on HTT, 0.1 to 1 µM in the assay on Target C and < 0.1 µM with SMN2 mRNA.

Consider `Cc1cn2cc(-c3cc(F)c4c(=O)n(C5CCNCC5)cnc4c3)nc2c(C)n1` [Compound 319], for which the IC50 in the assay on HTT is 1 to 10 µM; in the assay on Target C, 1 to 10 µM; in the assay with SMN2 mRNA, < 0.1 µM.

As for `COc1cc(-c2cc(F)c3c(=O)n(C4CCNCC4)cnc3c2)cnn1` [Compound 320], the IC50 with HTT was > 10 µM; in the assay with Target C, > 10 µM; in the assay with SMN2 mRNA, 1 to 10 µM.

Turning to `Cc1cn2nc(-c3cc(F)c4c(=O)n(C5CCNCC5)ccc4c3)cc(C)c2n1` [Compound 322], the IC50 in the assay with HTT, in the assay on Target C and in the assay with SMN2 mRNA was < 0.1 µM each time.

As for `Cc1cn2cc(-c3cc(F)c4c(=O)n([C@H]5CCNC[C@H]5F)cnc4c3)cc(F)c2n1` [Compound 338], the IC50 in the assay on HTT is 1 to 10 µM; with Target C, 1 to 10 µM; with SMN2 mRNA it was < 0.1 µM.

On to `Cc1cn2cc(-c3cc(F)c4c(=O)n(C5CCNCC5(F)F)cnc4c3)cc(F)c2n1` (stereo not drawn) [Compound 339], for which the IC50 is > 10 µM in the assay on HTT, > 10 µM in the assay on Target C and 0.1 to 1 µM with SMN2 mRNA.

With `Cc1cn2cc(-c3cc(F)c4c(=O)n(N5CCNCC5)cnc4c3)cc(F)c2n1` [Compound 340, 5-fluoro-7-{8-fluoro-2-methylimidazo[1,2-a]pyridin-6-yl}-3-(piperazin-1-yl)quinazolin-4-one], the 50% inhibitory concentration (IC50) is 0.1 to 1 µM in the assay with HTT, 0.1 to 1 µM in the assay on Target C and < 0.1 µM with SMN2 mRNA.

For `Cc1cn2cc(-c3cc(F)c4c(=O)n(C5=CCNCC5)cnc4c3)cc(F)c2n1` [Compound 342], the IC50 is 0.1 to 1 µM in the assay on HTT, 0.1 to 1 µM in the assay with Target C and < 0.1 µM in the assay on SMN2 mRNA.

In the case of `Cc1cn2nc(-c3cc(N(C)C)c4c(=O)n(C5CCNC6(CC6)C5)cnc4c3)cc(C)c2n1` (stereo not drawn) [Compound 345], the IC50 in the assay with HTT was > 10 µM; with Target C, > 10 µM; in the assay on SMN2 mRNA, < 0.1 µM.

Regarding `Cc1cn2cc(-c3cc(F)c4c(=O)n([C@H]5CCN[C@H](C)C5)cnc4c3)cc(F)c2n1` [Compound 346, trans-5-fluoro-7-(8-fluoro-2-methylimidazo[1,2-a]pyridin-6-yl)-3-(2-methylpiperidin-4-yl)quina-zolin-4(3H)-one], the figures for the IC50 with HTT, with Target C and in the assay on SMN2 mRNA were 0.1 to 1 µM, 0.1 to 1 µM and < 0.1 µM, respectively.

For `Cc1cn2cc(-c3cc(F)c4c(=O)n([C@H]5CCNC[C@@H]5O)cnc4c3)cc(F)c2n1` [Compound 347, 5-fluoro-7-{8-fluoro-2-methylimidazo[1,2-a]pyridin-6-yl}-3-[(3S,4S)-3-hydroxypiperidin-4-yl]quinazolin-4-one], the IC50 in the assay with HTT, in the assay with Target C and in the assay on SMN2 mRNA was > 10 µM in each case.

As for `Cc1cn2cc(-c3cc(F)c4c(=O)n([C@H]5CNCC[C@@H]5O)cnc4c3)cc(F)c2n1` [Compound 348, 5-fluoro-7-{8-fluoro-2-methylimidazo[1,2-a]pyridin-6-yl}-3-[(3S,4S)-4-hydroxypiperidin-3-yl]quinazolin-4-one], the IC50 in the assay with HTT, in the assay with Target C and in the assay on SMN2 mRNA was > 10 µM in each case.

Regarding `Cc1cn2nc(-c3ccc4c(=O)n([C@H]5CCNC6(CC6)C5)cnc4c3)cc(C)c2n1` [Compound 349, 3-[(7S)-4-azaspiro[2.5]octan-7-yl]-7-{2,8-dimethylimidazo[1,2-b]pyridazin-6-yl}quinazolin-4-one], the results for the IC50 in the assay on HTT, in the assay on Target C and in the assay on SMN2 mRNA were 0.1 to 1 µM, 1 to 10 µM and < 0.1 µM, respectively.

For `Cc1cn2nc(-c3ccc4c(=O)n([C@@H]5CCNC6(CC6)C5)cnc4c3)cc(C)c2n1` [Compound 350, 3-[(7R)-4-azaspiro[2.5]octan-7-yl]-7-{2,8-dimethylimidazo[1,2-b]pyridazin-6-yl}quinazolin-4-one], the IC50 is 0.1 to 1 µM in the assay on HTT, < 0.1 µM in the assay on Target C and < 0.1 µM in the assay on SMN2 mRNA.

For `Cc1cn2nc(-c3cc(F)c4c(=O)n(C5CCNC6(CC6)C5)cnc4c3)cc(C)c2n1` (stereo not drawn) [Compound 351], the IC50 in the assay on HTT, in the assay with Target C and in the assay with SMN2 mRNA was < 0.1 µM in each case.

As for `Cc1cn2cc(-c3cc(F)c4c(=O)n(C5CNCCC5=O)cnc4c3)cc(F)c2n1` (stereo not drawn) [Compound 352, 5-fluoro-7-{8-fluoro-2-methylimidazo[1,2-a]pyridin-6-yl}-3-(4-oxopiperidin-3-yl)quinazolin-4-one], the 50% inhibitory concentration (IC50) in the assay on HTT, in the assay on Target C and in the assay on SMN2 mRNA was > 10 µM each time.

Take `Cc1cn2cc(-c3cc(F)c4c(=O)n(C5CCCNCC5)cnc4c3)cc(F)c2n1` (stereo not drawn) [Compound 353, 3-(azepan-4-yl)-5-fluoro-7-{8-fluoro-2-methylimidazo[1,2-a]pyridin-6-yl}quinazolin-4-one]: the concentration for half-maximal inhibition (IC50) in the assay with HTT was 0.1 to 1 µM; in the assay on Target C, 1 to 10 µM; with SMN2 mRNA, < 0.1 µM.

As for `Cc1ncc(-c2ccc3c(=O)n(C4CCNCC4)cnc3c2)cn1` [Compound 354, 7-(2-methylpyrimidin-5-yl)-3-(piperidin-4-yl)quinazolin-4(3H)-one], the IC50 with HTT, with Target C and with SMN2 mRNA was 1 to 10 µM each time.

Consider `Cc1cn2nc(-c3cc(C)c4c(=O)n(C5CCNCC5)cnc4c3)cc(C)c2n1` [Compound 355], for which the concentration for half-maximal inhibition (IC50) in the assay on HTT, in the assay on Target C and in the assay on SMN2 mRNA was < 0.1 µM throughout.

Consider `Cc1cn2nc(-c3cc(F)c4c(=O)n([C@@H]5CCNC6(CC6)C5)cnc4c3)cc(C)c2n1` [Compound 356], for which the half-inhibitory concentration (IC50) in the assay with HTT, in the assay with Target C and in the assay with SMN2 mRNA was < 0.1 µM throughout.
